We go through 4 compounds from patent US9040727B2, “Histone deacetylase inhibitor of benzamides and use thereof” (Shanghai Institute of Pharmaceutical Industry, priority 2011, dated 2015).

One data set deals with hERG potassium channel (Homo sapiens (Human), UniProt Q12809). Briefly: Effects on hERG potassium channel. It is filed as cell-based. The following applies: for inhibition at 10 µM: human, hERG potassium current, read-out: Maximum inhibition percentage at 10 μM; for IC50: read-out: Half inhibition concentration for the effect on hERG potassium current IC50. On the technique in general: Block of hERG is tested as a sign of cardiac risk.

The test system of data set [1] is Jurkat E6-1 human T-cell lymphoma. As to the kind of experiment: In vitro anti-proliferative effect, CCK-8 method. It is filed as cell-based. As for the experimental part:
(§1) The inhibitory activities of the compounds towards Hut78 T lymphocytic leukemia cells, Jurkat E6-1 human T-cell lymphoma, A549 human lung cancer cells, K562 human chronic myelogenous leukemia cells, Hep3B2.1-7 human liver cancer cells, MDA-MB-435s human breast cancer cells, Colo320 human rectal cancer cell line, and PC-3 human prostate cancer were determined. The inhibition percentages as represented by IC50 values were obtained through CCK-8 method.

Data set [2] has as its system Hep3B2.1-7 human liver cancer cells. As to the kind of experiment: In vitro anti-proliferative effect, CCK-8 method. It is filed as cell-based. Particulars: Hep3B. Here is the method:
as §1
(In general: Tetrazolium dyes change colour on reduction, which living cells bring about.)

The subject of data set [3] is Hut78 T lymphocytic leukemia cells. Briefly: In vitro anti-proliferative effect, CCK-8 method. It is filed as cell-based. Here is the method: as §1
Data set [4] has as its system MDA-MB-435s human breast cancer cells. As to the kind of experiment: In vitro anti-proliferative effect, CCK-8 method. It is filed as cell-based. As for the experimental part:
as §1

Data set [5] relates to K562 human chronic myelogenous leukemia cells. As to the kind of experiment: In vitro anti-proliferative effect, CCK-8 method. It is filed as cell-based. Here is the method: as §1
Data set [6] relates to A549 human lung cancer cells. As to the kind of experiment: In vitro anti-proliferative effect, CCK-8 method. It is filed as cell-based. Here is the method: as §1
Data set [7] deals with PC-3 human prostate cancer. As to the kind of experiment: In vitro anti-proliferative effect, CCK-8 method. It is filed as cell-based. As for the experimental part: as §1
Data set [8] in a line: Preliminary pharmacokinetic experiment. Particulars: in vivo, rat.
The next data set addresses HDAC1 (Homo sapiens (Human), UniProt Q13547). As to the kind of experiment: In vitro inhibitory activity towards HDAC1 (HDAC Inhibitor Drug Screening Kit). The following applies: for inhibitory activity against HDAC1 compared with MS-275 (by IC50): comparison with MS-275; for inhibition at 1 µM: compound at 1 μM; for inhibition at 10 µM: compound at 10 μM. It is filed as biochemical. As for the experimental part:
(1) The compounds to be tested were each individually prepared as 10 μM and 1 μM solutions and their inhibitory activities towards HDAC1 at these concentrations were tested.
(§2) Each dilution sample was placed in two wells and the enzyme inhibition IC50 of the compound was tested.

Data set [9] has as its system Colo320 human rectal cancer cell line. As to the kind of experiment: In vitro anti-proliferative effect, CCK-8 method. It is filed as cell-based. As for the experimental part:
as §1

The test system of a further data set is HDACs. As to the kind of experiment: In vitro inhibition of HDACs (HDAC Inhibitor Drug Screening Kit). It is filed as biochemical. Here is the method:
The test was conducted according to the instructions in the HDAC Inhibitor Drug Screening Kit (Biovision/Catalog #50051, BPS).
as §2

Data set [10] relates to multiple strains of tumor cells. Briefly: In vitro inhibition of proliferation of tumor cell strains (overall comparison). It is filed as cell-based. Particulars: comparison with MS-275. As for the experimental part:
as §1

Setting [11] is: iv, 2 mg/kg, i.v., read-out: Intravenous half-life (converted).
[12] abbreviates: oral, read-out: Oral half-life (converted).

SMILES strings stand for the structures. Read-outs that look alike come from different tables or passages of the source.

Chain of HDAC1 (Q13547 whole entry): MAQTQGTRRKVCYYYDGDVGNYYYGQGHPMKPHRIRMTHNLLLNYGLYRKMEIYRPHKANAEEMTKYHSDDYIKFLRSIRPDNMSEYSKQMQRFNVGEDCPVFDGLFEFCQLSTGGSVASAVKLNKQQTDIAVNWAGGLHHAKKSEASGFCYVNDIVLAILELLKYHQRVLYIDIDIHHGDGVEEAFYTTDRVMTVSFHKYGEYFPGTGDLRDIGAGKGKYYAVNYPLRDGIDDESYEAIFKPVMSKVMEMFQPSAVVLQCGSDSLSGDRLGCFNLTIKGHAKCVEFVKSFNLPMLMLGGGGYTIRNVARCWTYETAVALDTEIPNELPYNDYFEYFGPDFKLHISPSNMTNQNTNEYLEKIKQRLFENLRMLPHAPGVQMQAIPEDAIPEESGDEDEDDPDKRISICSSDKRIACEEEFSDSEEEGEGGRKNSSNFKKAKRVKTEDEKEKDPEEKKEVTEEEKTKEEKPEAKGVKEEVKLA
Chain of hERG potassium channel (Q12809 whole entry): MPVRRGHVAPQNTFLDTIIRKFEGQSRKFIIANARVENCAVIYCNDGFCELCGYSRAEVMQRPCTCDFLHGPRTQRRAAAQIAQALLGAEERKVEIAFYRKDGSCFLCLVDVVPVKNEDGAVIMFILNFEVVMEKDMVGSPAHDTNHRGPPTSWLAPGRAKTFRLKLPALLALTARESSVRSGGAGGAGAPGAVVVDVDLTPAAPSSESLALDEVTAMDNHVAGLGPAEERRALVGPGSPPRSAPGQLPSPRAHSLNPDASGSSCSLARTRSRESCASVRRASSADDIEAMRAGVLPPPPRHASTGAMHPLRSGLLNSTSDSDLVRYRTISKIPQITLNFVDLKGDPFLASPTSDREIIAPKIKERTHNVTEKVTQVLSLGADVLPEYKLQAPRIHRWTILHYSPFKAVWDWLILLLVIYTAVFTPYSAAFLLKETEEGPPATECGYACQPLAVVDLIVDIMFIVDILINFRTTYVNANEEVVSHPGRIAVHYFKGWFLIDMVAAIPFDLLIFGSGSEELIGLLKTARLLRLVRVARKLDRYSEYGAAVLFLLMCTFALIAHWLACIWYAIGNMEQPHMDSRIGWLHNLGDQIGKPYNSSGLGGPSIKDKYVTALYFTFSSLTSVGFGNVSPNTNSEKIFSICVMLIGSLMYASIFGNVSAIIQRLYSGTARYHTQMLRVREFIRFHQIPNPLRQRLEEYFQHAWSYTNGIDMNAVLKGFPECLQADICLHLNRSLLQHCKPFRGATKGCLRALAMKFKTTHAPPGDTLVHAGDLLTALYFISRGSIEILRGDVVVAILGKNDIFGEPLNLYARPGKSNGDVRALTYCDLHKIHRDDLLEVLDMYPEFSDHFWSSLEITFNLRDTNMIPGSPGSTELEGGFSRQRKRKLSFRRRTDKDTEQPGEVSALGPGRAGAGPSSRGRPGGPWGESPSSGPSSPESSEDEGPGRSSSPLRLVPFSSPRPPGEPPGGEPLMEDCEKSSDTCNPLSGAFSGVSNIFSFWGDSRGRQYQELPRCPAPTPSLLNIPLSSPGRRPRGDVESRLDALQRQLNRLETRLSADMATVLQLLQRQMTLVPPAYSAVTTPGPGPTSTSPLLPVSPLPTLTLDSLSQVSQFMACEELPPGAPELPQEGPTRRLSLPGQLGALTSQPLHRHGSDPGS

On to `Nc1ccc(F)cc1NC(=O)c1ccc(CNC(=O)c2cc3ccccc3o2)cc1` [Compound V-9], for which the inhibition at 10 µM at hERG potassium channel is 19.9 ± 6.7%; on HDAC1, 69.1%. Moreover, the IC50 on hERG potassium channel is > 10000 nM; in data set [1] (Homo sapiens), 2130 nM; in data set [2] (Homo sapiens) it was 15900 nM; in data set [3] (Homo sapiens, HuT78), 3460 nM; in data set [4] (Homo sapiens), 14800 nM; in data set [5] it was 17100 nM. For the same compound, the IC50 in data set [6] (Homo sapiens) was 21200 nM; in [7] (Homo sapiens) it was 2240 nM. Moreover, the half-life in [8] (setting [11]) is 0.95 h; in data set [8] (setting [12]) it was 6.37 h. The compound further returned a bioavailability in data set [8] (oral) of 28.8%. Further, the “inhibitory activity against HDAC1 compared with MS-275 (by IC50)” value at HDAC1 is “better inhibitory activities against HDAC1 as compared with MS-275”. The inhibition at 1 µM against HDAC1 turned out to be 37.9%.
Take `Nc1ccccc1NC(=O)c1ccc(CNC(=O)c2cc3ccccc3[nH]2)cc1` [Compound V-5]: the inhibition at 10 µM on hERG potassium channel is 11.5 ± 0.8%; against HDAC1, 81.1%. The IC50 is > 10000 nM on hERG potassium channel; 179 nM in data set [1] (Homo sapiens); 2450 nM in data set [9] (Homo sapiens, COLO 320); 3460 nM in [2] (Homo sapiens); 19.4 nM in data set [3] (Homo sapiens, HuT78); 1310 nM in data set [5]. For the same compound, the IC50 in data set [6] (Homo sapiens) was 2640 nM; in [7] (Homo sapiens) it was 242 nM. The half-life in data set [8] (setting [11]) is 1.27 h; in data set [8] (setting [12]), 3.7 h. This compound came in with a bioavailability in data set [8] (oral) of 7.84%. At HDAC1, the “inhibitory activity against HDAC1 compared with MS-275 (by IC50)” value is recorded as “better inhibitory activities against HDAC1 as compared with MS-275”. This compound registered an inhibition at 1 µM on HDAC1 of 59.6%.
`Nc1ccccc1NC(=O)c1ccc(CNC(=O)OCc2cccnc2)cc1` [MS-275, reference compound]: the IC50 in [1] turned out to be 561 nM; in data set [9] it was 522 nM; in [2], 6820 nM; in [3] (Hut78), 528 nM; in data set [4] it was 2710 nM; in data set [6] it was 2280 nM. In addition, the IC50 in data set [7] was found to be 502 nM; in the data set on HDACs it was 3520 nM.
`Nc1ccc(F)cc1NC(=O)c1ccc(CNC(=O)c2cc3ccccc3s2)cc1` [Compound V-27]: the IC50 in data set [1] (Homo sapiens) came to 1390 nM; in [9] (Homo sapiens, COLO 320), 27000 nM; in data set [2] (Homo sapiens) it was 16000 nM; in data set [3] (Homo sapiens, HuT78), 55.8 nM; in data set [5], 2810 nM; in data set [6] (Homo sapiens) it was 5090 nM. In addition, the IC50 in [7] (Homo sapiens) amounted to 3570 nM; in the data set with HDACs, 1220 nM; against HDAC1, 276 nM. Further, in data set [10], the “inhibition rate for tumor cells compared with MS-275” value was “higher inhibition rate for multiple strains of tumor cells as compared with MS-275”. The “inhibitory activity against HDAC1 compared with MS-275 (by IC50)” value at HDAC1 was “better inhibitory activities against HDAC1 as compared with MS-275”. Further, on HDAC1, the inhibition at 1 µM is 47.6%. On HDAC1, this compound returned an inhibition at 10 µM of 80.2%.

One may read the inhibition as the change of the read-out against control, counted positive when it falls. For orientation: half-life means the time needed for the level to fall by half in the phase considered. For orientation: bioavailability means dose-corrected exposure relative to a reference, in per cent. Lower therefore signals poor availability.
